Reference: US11701364B2, “Agonists of stimulator of interferon genes sting” (The Scripps Research Institute, priority 2018, dated 2023)
pEC50: −log10 of the molar value. Like-named read-outs stand apart in the source and are kept apart here.

What was measured:
[1] = system: human PBMCs; test: Type I IFN protein expression in human PBMCs; type: cell-based; settings: compared with 2′-3′ cGAMP
[2] = system: STING knockout cells; test: ISRE-Luciferase reporter activity in STING knockout THP-1 cells (counter screen); type: cell-based, human
Description: Wild-type and STING KO THP-1 ISRE-Luciferase reporter cells were treated with increasing doses of 2′3′-cGAMP and reporter activity (luminescence) was assessed 48 h after treatment (A). Lack of STING protein expression was confirmed in STING KO THP-1 cells by western blot with gamma-tubulin used as a protein loading control (B). Wild-type and STING KO THP-1 reporter cells were treated with increasing doses of Compound 164 (Cmpd 164) and reporter activity and cell viability were assessed 24 h after treatment (C-D).
We have established a robust platform for identifying non-nucleotide small molecule STING agonists. This has been established using a primary assay involving a human THP-1 cell line carrying an IRF-inducible reporter with 5 copies of the IFN signaling response element. […]
THP-1 Lucia ISG cells were resuspended in low-serum growth media (2% FBS) at a density of 5×10^5 cells/ml and treated with test article or vehicle (DMSO). […] To evaluate expression of the luciferase reporter, 30 μl of Quanti-luc (Invivogen) detection reagent was added to each well and luminescence was read using an Envision plate reader (Perkin Elmer) set with an integration time of 0.1 seconds.

[3] = target: T1, STING (Stimulator of Interferon Genes) (Homo sapiens, UniProt Q86WV6, G230A/H232R/R293Q/R71H); test: ISG-LUC activation assay (ISRE-Luciferase assay in THP-1 Lucia ISG reporter cells); type: cell-based
T1 construct: host or cells: THP-1-Lucia ISG cells (human monocytic line)
Excerpt: (§1) This has been established using a primary assay involving a human THP-1 cell line carrying an IRF-inducible reporter with 5 copies of the IFN signaling response element. Counter screens, involving alternative reporter constructs, rodent cell-based assays, as well as cGAS and STING knock-out cell lines, are used to eliminate luciferase artifacts and ensure human-rodent cross species reactivity, as well as pathway selectivity. Biochemical assays, involving cGAS enzymatic activity and STING protein binding assays, are used to identify the specific target of identified hits.
THP-1 Lucia ISG cells were resuspended in low-serum growth media (2% FBS) at a density of 5×10^5 cells/ml and treated with test article or vehicle (DMSO). 50 μL of cells were seeded into each well of a 384-well white greiner plates and incubated for 24 hours. To evaluate expression of the luciferase reporter, 30 μl of Quanti-luc (Invivogen) detection reagent was added to each well and luminescence was read using an Envision plate reader (Perkin Elmer) set with an integration time of 0.1 seconds.

[4] = system: interferon-stimulated gene signature; test: Interferon-stimulated gene signature expression (qPCR); type: cell-based, human; settings: relevant cell types
Description: Wild-type and STING KO THP-1 cells were stimulated with poly(dA:dT), a known activator of both RIG-I and cGAS-dependent signaling cascades, and downstream target gene expression was assessed 48 h later by qPCR (A). Wild-type and STING KO THP-1 cells were stimulated with 2′3′-cGAMP or Cmpd 164 at the indicated doses and activation of type I interferon signaling was assessed by gene expression analysis of IFNB1 (B) and interferon stimulated genes, IFIT3 (C) and CXCL10 (D).
as §1, with “We have established a robust platform for identifying non-nucleotide small molecule STING agonists. This” for “This”, “Biochemical assays, involving cGAS enzymatic activity and STING protein binding assays, are used to identify the specific target of identified hits.” left out
THP-1 cells were resuspended in low-serum growth media at a density of 5×10^5 cells/ml and treated with test article or vehicle (DMSO). […] Gene expression was assessed using Taqman primers and probes listed in Table 4 with the Taqman Universal Mix II (cat. no. 4440038, ThermoFisher) following manufacturer's instructions. […]

[5] = system: cGAS knockout cells; test: Activity in wild-type and cGAS knockout cells (counter screen); type: cell-based
Excerpt: We have established a robust platform for identifying non-nucleotide small molecule STING agonists. This has been established using a primary assay involving a human THP-1 cell line carrying an IRF-inducible reporter with 5 copies of the IFN signaling response element. Counter screens, involving alternative reporter constructs, rodent cell-based assays, as well as cGAS and STING knock-out cell lines, are used to eliminate luciferase artifacts and ensure human-rodent cross species reactivity, as well as pathway selectivity. Biochemical assays, involving cGAS enzymatic activity and STING protein binding assays, are used to identify the specific target of identified hits. […] Further evidence is provided by STING protein thermal shift data. A preliminary medicinal chemistry effort, involving the design, synthesis, and testing of ˜100 analogs within the series, has identified key features of the molecule that are required for activity and has led to the identification of derivatives with ˜10-fold improvements in cell-based potency (by for example modulating the substitution pattern on the aniline ring) and ˜50-fold improvement in plasma stability (by modulating the size of the substituent of the ester).

[6] = THP-1 Lucia ISG cells, 24 hours, luciferase reporter, read-out: ISG-LUC activation assay (EC50)

T1 sequence (Q86WV6 whole entry R71H/G230A/H232R/R293Q): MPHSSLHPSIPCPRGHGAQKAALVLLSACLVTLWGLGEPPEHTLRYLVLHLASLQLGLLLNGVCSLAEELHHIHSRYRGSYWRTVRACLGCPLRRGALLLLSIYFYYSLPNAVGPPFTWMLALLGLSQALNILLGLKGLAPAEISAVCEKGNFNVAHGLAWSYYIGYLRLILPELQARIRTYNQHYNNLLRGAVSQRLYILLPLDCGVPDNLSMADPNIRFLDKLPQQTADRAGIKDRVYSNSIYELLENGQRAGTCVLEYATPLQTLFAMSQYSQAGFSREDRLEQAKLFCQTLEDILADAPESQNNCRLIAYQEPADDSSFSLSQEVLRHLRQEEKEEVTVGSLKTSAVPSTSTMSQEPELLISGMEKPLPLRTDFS

O=C(Nc1ccc(Br)cc1C(O)(C(F)(F)F)C(F)(F)F)c1ccc(-n2ccnc2)nn1 [Compound 164]
type I IFN protein expression, efficacy [1]: comparable to that observed for 2′-3′ cGAMP | activity in STING knockout cells [2]: lack of activity | pEC50 [3, 6]: < 4.70 | pEC50 ([3]; primary assay, human THP-1 IRF-inducible reporter, read-out: EC50): ~6.00 | interferon-stimulated gene signature expression [4]: induces interferon-stimulated gene signature expression | activity in wild-type and cGAS knockout cells [5]: observed activity

O=c1oc(-c2ccc(-n3ccnc3)nn2)nc2c1COCC2 [Compound 168]
pEC50 [3, 6]: 4.95

O=C(Nc1cc(F)ccc1C(=O)O)c1ccc(-n2ccnc2)nn1 [Compound 169]
pEC50 [3, 6]: 4.90

COc1cc(C(=O)O)c(NC(=O)c2ccc(-n3ccnc3)nn2)cc1F [Compound 170]
pEC50 [3, 6]: 4.96

CCCc1ccc(NC(=O)c2ccc(-n3ccnc3)nn2)c(C(=O)O)c1 [Compound 171]
pEC50 [3, 6]: < 4.70

Cc1cc(C(=O)O)c(NC(=O)c2ccc(-n3ccnc3)nn2)cc1F [Compound 172]
pEC50 [3, 6]: 6.00

O=C(Nc1ccc(F)c(F)c1C(=O)O)c1ccc(-n2ccnc2)nn1 [Compound 173]
pEC50 [3, 6]: < 4.70

O=C(Nc1cc(C2CC2)c(F)cc1C(=O)O)c1ccc(-n2ccnc2)nn1 [Compound 174]
pEC50 [3, 6]: 5.00

COC(=O)c1cc(F)cc(C)c1NC(=O)c1ccc(-n2ccnc2)nn1 [Compound 175]
pEC50 [3, 6]: ~5.55

COC(=O)c1c(F)c(F)c(F)c(F)c1NC(=O)c1ccc(-n2ccnc2)nn1 [Compound 176]
pEC50 [3, 6]: ~5.60

O=C(Nc1cc(F)c(Br)nc1C(=O)O)c1ccc(-n2ccnc2)nn1 [Compound 177]
pEC50 [3, 6]: < 4.70
